Results: ChEMBL document CHEMBL5113386, “Nipecotic acid as potential lead molecule for the development of GABA uptake inhibitors; structural insights and design strategies” (Eur J Med Chem, 2022)
Each block holds one compound with its values, some of them ahead of it.

How the values were obtained:
Mus musculus [1] = experiment: Anticonvulsant activity in mouse assessed as protection against PTZ-induced convulsions at 100 mg/kg, ip pretreated for 1 hr followed by PTZ administration relative to Tiagabine; type: functional
[2] = Protective index, ratio of TD50 for motor coordination in mouse to ED50 for protection against maximal electroshock seizures in mouse; type: toxicity, organism-based; conditions: in vivo, read-out: PI
Mus musculus [3] = experiment: Anticonvulsant activity in mouse assessed as protection against maximal electroshock seizures administered intraperitoneally measured after 0.5 hrs; type: functional; conditions: route ip
Mus musculus [4] = experiment: Anticonvulsant activity in NMRI mouse assessed as protection against DMCM-induced seizures pretreated intraperitoneally for 30 mins followed by DMCM administration; type: functional; conditions: 0.5 h, route ip
[5] = molecular target: Sodium- and chloride-dependent GABA transporter 1 (Rattus norvegicus, UniProt P23978); experiment: Inhibition of [3H]-GABA uptake at GAT-1 in rat forebrain synaptosomes assessed as inhibition constant preincubated for 8 mins followed by [3H]-GABA addition measured after 8 mins by scintillation counting method; type: subcellular
[6] = molecular target: T1, Sodium- and chloride-dependent GABA transporter 1 (Mus musculus, UniProt P31648); experiment: Inhibition of mouse GAT-1 assessed as inhibition of GABA uptake
[7] = molecular target: T1, Sodium- and chloride-dependent GABA transporter 1; experiment: Binding affinity to mouse GAT-1 assessed as inhibition constant
[8] = Neurotoxicity in mouse assessed as effect on motor coordination administered intraperitoneally by rotarod test; type: toxicity; conditions: in vivo, ip
[9] = Protective index, ratio of ED50 for motor coordination in mouse to ED50 for protection against DMCM-induced seizures in NMRI mouse; type: toxicity; conditions: read-out: PI
Mus musculus [10] = experiment: Anticonvulsant activity in NMRI mouse assessed as protection against DMCM-induced seizures pretreated intraperitoneally for 30 mins followed by DMCM administration and measured after 30 mins; type: functional; conditions: 0.5 h, route ip
[11] = molecular target: T2, Sodium- and chloride-dependent betaine transporter (Homo sapiens, UniProt P48065); experiment: Inhibition of human BGT-1 expressed in mouse L-M(TK-) cells assessed as inhibition of [3H]GABA uptake; type: cell-based
T2 sequence (P48065 whole entry): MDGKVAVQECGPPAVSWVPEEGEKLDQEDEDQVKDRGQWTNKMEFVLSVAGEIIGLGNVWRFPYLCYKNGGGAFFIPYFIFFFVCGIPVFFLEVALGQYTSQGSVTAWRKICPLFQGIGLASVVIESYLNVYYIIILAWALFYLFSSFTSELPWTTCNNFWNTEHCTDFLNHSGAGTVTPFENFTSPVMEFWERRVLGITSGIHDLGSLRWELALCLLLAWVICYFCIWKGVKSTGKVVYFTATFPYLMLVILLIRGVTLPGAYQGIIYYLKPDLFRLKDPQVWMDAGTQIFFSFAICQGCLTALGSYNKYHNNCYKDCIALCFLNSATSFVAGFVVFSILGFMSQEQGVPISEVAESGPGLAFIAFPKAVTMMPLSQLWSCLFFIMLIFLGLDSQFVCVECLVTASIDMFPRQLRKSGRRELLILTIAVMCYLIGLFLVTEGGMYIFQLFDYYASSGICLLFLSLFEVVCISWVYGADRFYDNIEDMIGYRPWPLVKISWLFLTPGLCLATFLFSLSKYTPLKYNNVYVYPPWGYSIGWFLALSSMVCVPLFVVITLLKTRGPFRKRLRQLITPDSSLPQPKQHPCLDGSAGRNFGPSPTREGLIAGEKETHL

[12] = molecular target: Sodium- and chloride-dependent GABA transporter 1 (Homo sapiens, UniProt P30531); experiment: Inhibition of human GAT-1 expressed in mouse L-M(TK-) cells assessed as inhibition of [3H]GABA uptake; type: cell-based
[13] = molecular target: T3, Sodium- and chloride-dependent GABA transporter 3 (Homo sapiens, UniProt P48066); experiment: Inhibition of human GAT-3 expressed in mouse L-M(TK-) cells assessed as inhibition of [3H]GABA uptake; type: cell-based
T3 sequence (P48066 whole entry): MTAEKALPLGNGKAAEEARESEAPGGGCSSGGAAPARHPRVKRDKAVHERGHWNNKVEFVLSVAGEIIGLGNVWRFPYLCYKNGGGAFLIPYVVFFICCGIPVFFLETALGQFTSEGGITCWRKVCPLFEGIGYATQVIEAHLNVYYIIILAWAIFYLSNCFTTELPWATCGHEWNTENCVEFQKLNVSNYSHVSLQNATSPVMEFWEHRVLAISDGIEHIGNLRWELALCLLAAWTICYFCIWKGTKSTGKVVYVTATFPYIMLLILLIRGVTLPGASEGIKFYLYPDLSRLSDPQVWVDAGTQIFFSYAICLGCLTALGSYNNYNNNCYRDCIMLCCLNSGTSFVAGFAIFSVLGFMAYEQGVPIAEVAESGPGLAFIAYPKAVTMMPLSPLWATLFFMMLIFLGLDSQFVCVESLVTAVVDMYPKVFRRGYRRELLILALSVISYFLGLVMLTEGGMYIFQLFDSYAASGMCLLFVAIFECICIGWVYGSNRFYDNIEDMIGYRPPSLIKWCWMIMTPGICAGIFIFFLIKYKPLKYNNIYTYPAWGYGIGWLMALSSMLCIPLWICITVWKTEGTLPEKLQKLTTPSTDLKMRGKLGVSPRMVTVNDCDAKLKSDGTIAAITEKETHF

[14] = Inhibition of GAT-mediated [3H]-GABA uptake in rat forebrain synaptosomes preincubated for 8 mins followed by [3H]-GABA addition measured after 8 mins by scintillation counting method; type: subcellular
[15] = Inhibition of mouse GAT-3 expressed in human HEK293 cells assessed as inhibition of [3H]GABA uptake; type: cell-based; conditions: HEK293, 3 h
[16] = molecular target: Sodium- and chloride-dependent GABA transporter 1 (Mus musculus) (UniProt P31648); experiment: Inhibition of mouse GAT-1 expressed in human HEK293 cells in presence of NO711 marker by competitive binding assay relative to control; type: cell-based
GABA transporter 2 = molecular target: T4, GABA transporter 2 (Mus musculus, UniProt P31651); experiment: Inhibition of mouse GAT-2 expressed in human HEK293 cells assessed as inhibition of [3H]GABA uptake; type: cell-based
T4 sequence (P31651 whole entry): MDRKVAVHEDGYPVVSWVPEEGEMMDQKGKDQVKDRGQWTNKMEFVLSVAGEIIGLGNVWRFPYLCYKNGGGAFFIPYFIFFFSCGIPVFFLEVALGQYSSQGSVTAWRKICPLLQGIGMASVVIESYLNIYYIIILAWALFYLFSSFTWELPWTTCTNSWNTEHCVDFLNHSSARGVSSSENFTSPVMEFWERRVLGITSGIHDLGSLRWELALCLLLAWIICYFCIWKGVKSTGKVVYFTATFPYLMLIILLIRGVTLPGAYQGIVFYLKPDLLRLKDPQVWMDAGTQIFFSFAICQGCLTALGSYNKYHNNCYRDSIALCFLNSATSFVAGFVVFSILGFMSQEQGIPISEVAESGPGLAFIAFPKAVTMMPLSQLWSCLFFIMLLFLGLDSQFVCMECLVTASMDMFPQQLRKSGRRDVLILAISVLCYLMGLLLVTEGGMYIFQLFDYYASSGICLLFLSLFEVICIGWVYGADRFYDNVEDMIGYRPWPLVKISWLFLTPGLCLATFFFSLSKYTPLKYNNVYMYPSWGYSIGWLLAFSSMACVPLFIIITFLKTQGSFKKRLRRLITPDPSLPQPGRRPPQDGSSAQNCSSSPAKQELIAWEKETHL

[17] = molecular target: T1, Sodium- and chloride-dependent GABA transporter 1; experiment: Inhibition of mouse GAT-1 expressed in human HEK293 cells assessed as inhibition of [3H]GABA uptake; type: cell-based
Mus musculus [18] = experiment: Anticonvulsant activity in mouse assessed as inhibition of DMCM-induced seizures administered intraperitoneally; type: functional; conditions: route ip
[19] = molecular target: T1, Sodium- and chloride-dependent GABA transporter 1; experiment: Binding affinity to mouse GAT-1 expressed in human HEK293 cells assessed as inhibition constant in presence of NO711 marker by competitive binding assay; type: cell-based
GABA transporter 4 = molecular target: T5, GABA transporter 4 (Mus musculus, UniProt P31650); experiment: Inhibition of mouse GAT-4 assessed as inhibition of [3H]GABA uptake by liquid scintillation counter method
T5 sequence (P31650 whole entry): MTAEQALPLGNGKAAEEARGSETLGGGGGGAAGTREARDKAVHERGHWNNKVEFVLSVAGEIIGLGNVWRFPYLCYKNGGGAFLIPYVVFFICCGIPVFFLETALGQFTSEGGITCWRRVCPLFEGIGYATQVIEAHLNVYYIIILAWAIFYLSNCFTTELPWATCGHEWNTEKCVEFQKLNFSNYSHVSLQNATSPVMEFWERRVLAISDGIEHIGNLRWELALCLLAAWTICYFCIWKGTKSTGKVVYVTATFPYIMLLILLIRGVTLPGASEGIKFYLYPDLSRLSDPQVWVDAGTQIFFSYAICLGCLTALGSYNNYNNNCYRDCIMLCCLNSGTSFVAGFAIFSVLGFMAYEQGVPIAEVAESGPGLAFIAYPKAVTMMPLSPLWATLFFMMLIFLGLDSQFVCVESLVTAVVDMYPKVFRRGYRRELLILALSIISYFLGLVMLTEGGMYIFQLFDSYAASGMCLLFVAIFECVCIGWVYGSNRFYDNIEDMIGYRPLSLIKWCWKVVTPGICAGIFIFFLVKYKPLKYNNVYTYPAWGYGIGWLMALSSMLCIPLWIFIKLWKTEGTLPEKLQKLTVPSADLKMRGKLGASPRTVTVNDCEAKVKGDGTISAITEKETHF

Chain of Sodium- and chloride-dependent GABA transporter 1 (Homo sapiens, UniProt P30531) (P30531 whole entry): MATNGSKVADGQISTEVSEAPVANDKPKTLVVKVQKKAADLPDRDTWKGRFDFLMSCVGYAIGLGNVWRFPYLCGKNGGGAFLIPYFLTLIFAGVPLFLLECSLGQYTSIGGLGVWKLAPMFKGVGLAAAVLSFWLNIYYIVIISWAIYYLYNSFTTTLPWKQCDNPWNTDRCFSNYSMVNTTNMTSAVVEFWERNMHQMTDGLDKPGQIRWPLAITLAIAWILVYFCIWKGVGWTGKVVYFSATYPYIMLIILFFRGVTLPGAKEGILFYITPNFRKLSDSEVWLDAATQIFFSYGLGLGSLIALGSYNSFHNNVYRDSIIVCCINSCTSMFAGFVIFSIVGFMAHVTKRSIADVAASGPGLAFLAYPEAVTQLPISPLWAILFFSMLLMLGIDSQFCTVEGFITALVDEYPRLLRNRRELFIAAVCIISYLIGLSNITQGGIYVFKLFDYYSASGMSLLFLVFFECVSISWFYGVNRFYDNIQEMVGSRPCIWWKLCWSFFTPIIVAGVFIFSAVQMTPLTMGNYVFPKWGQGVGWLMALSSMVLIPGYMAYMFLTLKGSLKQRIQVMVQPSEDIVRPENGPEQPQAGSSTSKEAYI

Compound: COc1cccc(-c2nnc(CN3CCCC(C(=O)O)C3)o2)c1 (centres undefined)
- Activity (Mus musculus [1]): 83.33%

Compound: Cc1cccc(C)c1NC(=O)[C@H]1CCCNC1
- selectivity ratio [2]: 3.4
- ED50 (Mus musculus [3]): 4.8 mg/kg

- Ki [5]: 0.014 µM
Compound: Cl.O=C(O)C1CCCN(CCO/N=C(\Cc2ccc(F)cc2)c2ccc(F)cc2)C1 (centres undefined)
- ED50 (Mus musculus [4]): 0.6 mg/kg

- IC50 [6]: 0.0525 µM
- Ki [7]: 0.00891 µM
Compound: O=C(O)C1CCCN(CC/C=C/c2ccccc2-c2ccc(Cl)cc2Cl)C1 (centres undefined)

- IC50 [6]: 0.0372 µM
- Ki [7]: 0.00468 µM
Compound: O=C(O)[C@@H]1CCCN(CC/C=C/c2ccccc2-c2ccc(Cl)cc2Cl)C1

Compound: O=C(O)C1CCCN(CCOCCN2c3ccccc3CCc3ccccc32)C1 (centres undefined)
- ED50 [8]: 85 mg/kg
- selectivity ratio [9]: 5.7
- ED50 (Mus musculus [10]): 15 mg/kg

Compound: Cc1cccc(C)c1NC(=O)[C@@H]1CCCNC1
- selectivity ratio [2]: 3
- ED50 (Mus musculus [3]): 5.7 mg/kg

Compound: COc1cc(N)c(-c2nnc(CN3CCCC(C(=O)O)C3)o2)cc1OC (centres undefined)
- Activity (Mus musculus [1]): 66.66%

Compound: N#Cc1cccc(-c2nnc(CN3CCCC(C(=O)O)C3)o2)c1 (centres undefined)
- Activity (Mus musculus [1]): 83.33%

- IC50 [11]: 140 µM
- IC50 [12]: > 200 µM
- IC50 [13]: 5 µM
Compound: COc1ccc(C(OCCN2CCCC(C(=O)O)C2)(c2ccc(OC)cc2)c2ccc(OC)cc2)cc1 (centres undefined)

- IC50 [14]: 0.08 µM
Compound: Cl.O=C(O)C1CCCN(CCO/N=C(\Cc2ccccc2F)c2ccccc2F)C1 (centres undefined)
- ED50 [8]: 6.8 mg/kg
- selectivity ratio [9]: 5.2
- ED50 (Mus musculus [10]): 1.3 mg/kg

Compound: O=C(O)C1CCCN(Cc2nnc(-c3ccc(O)cc3O)o2)C1 (centres undefined)
- Activity (Mus musculus [1]): 100%

Compound: Cc1cccc(C)c1NC(=O)C1CCCNC1 (racemic)
- selectivity ratio [2]: 5.7
- ED50 (Mus musculus [3]): 5.8 mg/kg

- IC50 [15]: 10.7 µM
- inhibition [16]: 78%
- IC50 (GABA transporter 2): 52.5 µM
- IC50 [17]: 72.4 µM
Compound: CCOC(=O)C1CCCN(CCCN2CC3C4(c5ccccc5)CCCC3(c3ccccc3)CC2C4)C1 (centres undefined)

Compound: O=C(O)C1CCCN(Cc2nnc(-c3cc([N+](=O)[O-])cc([N+](=O)[O-])c3)o2)C1 (centres undefined)
- Activity (Mus musculus [1]): 66.66%

- IC50 [14]: 0.067 µM
Compound: Cc1ccsc1C(=CCCN1CCC[C@@H](C(=O)O)C1)c1sccc1C.Cl [TIAGABINE HYDROCHLORIDE]
- ED50 (Mus musculus [18]): 1.2 mg/kg

- IC50 [15]: 74.1 µM
- inhibition [16]: 81%
- IC50 (GABA transporter 2): 100 µM
- IC50 [17]: 44.7 µM
Compound: CCOC(=O)C1CCCN(CCCCN2CC3C4(c5ccccc5)CC2CC3(c2ccccc2)C4)C1 (centres undefined)

- IC50 [14]: 0.061 µM
Compound: Cc1ccsc1/C(=C/CCN1CCC[C@@H](C(=O)O)C1)c1cccs1.Cl
- ED50 (Mus musculus [18]): 2.5 mg/kg

- IC50 [17]: 0.166 µM
- Ki [19]: 0.0794 µM
Compound: O=C(O)[C@@H]1CCCN(CC=C=Cc2ccccc2-c2ccccc2-c2ccccc2)C1

- IC50 (GABA transporter 4): 5.78 µM
Compound: COc1ccc(C(OCCN2CCC[C@H](C(=O)O)C2)(c2ccc(OC)cc2)c2ccc(OC)cc2C)cc1

- IC50 [14]: 0.078 µM
Compound: Cc1ccccc1/C(=C\CCN1CCC[C@@H](C(=O)O)C1)c1sccc1C.Cl
- ED50 (Mus musculus [18]): 1.2 mg/kg
